Results on 2 compounds are retold here after patent US10640507B2, “PBD antibacterial agents” (KING'S COLLEGE LONDON, priority 2015, dated 2020).

One may read the MIC as the lowest concentration that inhibits growth of the organism. As usually defined, the IC50 is the concentration that gives 50% inhibition.

Format in all cases: cell-based
In one assay the test system is Klebsiella KP 342. Briefly: General MIC protocol, Gram negative. As to conditions: KP342; Klebsiella KP 342; read-out: MIC. On the procedure: (§1) General Minimum Inhibitory Concentration (MIC) Protocol
(§2) 1. Grow up cultures of bacterial strains to be tested overnight.
(§3) 2. Dilute down overnight cultures to concentration of 1×10^6 bacteria/ml (OD0.01) in Tryptic soy broth (TSB).
(§4) 3. Add 100 μl of TSB media to column 2-column 12 in 96 well plate (keeping column 1 clear).
(§5) 4. Make up compound to a concentration of 64 μg/ml in water (or alternatively to twice the chosen maximum concentration to be tested).
(§6) 5. Add 100 μl of antibiotic solution to the 1st and 2nd columns.
(§7) 6. Using a multichannel pipette take 100 μl from the 2nd column wells and pipette into 3rd column wells and repeat down the 96 well plate (remembering to include controls i.e. uninfected media and media with no antibiotic).
(§8) 7. To each well (except uninfected control row H) add 100 μl of bacterially infected media at a concentration of 1×10^6/ml.
(§9) 8. This dilutes down the concentration of the antibiotic by half (top dose is therefore 32 μg/ml in column 1) and also gives you a starting bacterial concentration of 5×10^5/ml.
(§10) 9. Wrap plate with parafilm to prevent evaporation.
(§11) 10. Leave at desired temperature (37° C. unless specified elsewhere) for 20 hours.
(§12) 11. Next day check plates for growth and measure optical density (i.e. absorbance) at a wavelength of 600 nm (OD600).
(§13) An example of such a plate is shown in FIG. 1 where column A represents wells that receive the top dose 100 μl; column B represents wells that receive the top dose 100 μl+100 μl TSB; and column C represents wells that receive 100 μl TSB. Row H which is marked by a box labelled D represents a blank where the cells receive no bacteria.
The minimum inhibitory concentration (MIC) was measured using the general MIC protocol given above.

For another assay, the system named is Psueudomonas GH12. Briefly: General MIC protocol, Gram negative. As to conditions: Pseudomonas. The method, then:
as §1, §2, §3, §4, §5, §6, §7, §8, §9, §10, §11, §12, §13
The activity of the compound designated PP-A148 was tested against an extended panel of Klebsiella and Pseudomonas Gram-negative bacterial strains that have proven drug resistant difficult to treat. […] The minimum inhibitory concentration (MIC) was measured using the general MIC protocol given above.

A further assay has as its system K. pneumonia KP16. Briefly: General MIC protocol, Gram negative. To be noted: Klebsiella pneumoniae; K. pneumonia KP16; read-out: MIC. On the procedure: as §1, §2, §3, §4, §5, §6, §7, §8, §9, §10, §11, §12, §13
In another assay the test system is K. pneumonia NCTC 51851. Briefly: General MIC protocol, Gram negative. As to conditions: Klebsiella pneumoniae, NCTC51851; K. pneumonia NCTC 51851; read-out: MIC. On the procedure: as §1, §2, §3, §4, §5, §6, §7, §8, §9, §10, §11, §12, §13
The next assay deals with K. pneumonia NCTC 13439. Briefly: General MIC protocol, Gram negative. To be noted: Klebsiella pneumoniae, NCTC13439; K. pneumonia NCTC 13439; read-out: MIC. The method, then: as §1, §2, §3, §4, §5, §6, §7, §8, §9, §10, §11, §12, §13
Another assay has as its system K. pneumonia NCTC 13443. Briefly: General MIC protocol, Gram negative. As to conditions: Klebsiella pneumoniae, NCTC13443; K. pneumonia NCTC 13443; read-out: MIC. The method, then: as §1, §2, §3, §4, §5, §6, §7, §8, §9, §10, §11, §12, §13
For another assay, the system named is K. pneumonia MGH 78578. Briefly: General MIC protocol, Gram negative. To be noted: Klebsiella pneumoniae, MGH78578; K. pneumonia MGH 78578; read-out: MIC. The method, then: as §1, §2, §3, §4, §5, §6, §7, §8, §9, §10, §11, §12, §13
The test system of another assay is P. aeruginosa PA01. Put plainly: General MIC protocol, Gram negative. To be noted: Pseudomonas aeruginosa. On the procedure: as §1, §2, §3, §4, §5, §6, §7, §8, §9, §10, §11, §12, §13
The next assay concerns K. pneumonia NCTC 13438. Briefly: General MIC protocol, Gram negative. To be noted: Klebsiella pneumoniae, NCTC13438; K. pneumonia NCTC 13438; read-out: MIC. On the procedure: as §1, §2, §3, §4, §5, §6, §7, §8, §9, §10, §11, §12, §13
In a further assay the test system is EMRSA-16. Briefly: General MIC protocol, Gram positive panel. On the procedure:
as §1, §2, §3, §4, §5, §6, §7, §8, §9, §10, §11, §12, §13

Assay [1] relates to E. faecalis VRE NCTC 12201. Briefly: General MIC protocol, Gram positive panel. On the procedure:
as §1, §2, §3, §4, §5, §6, §7, §8, §9, §10, §11, §12, §13

Assay [2] deals with methicillin sensitive S. aureus ATTC 9144 (NCTC 6571). Briefly: General MIC protocol, Gram positive panel. As to conditions: Staphylococcus aureus, MSSA / NCTC 6571; MSSA 9144. On the procedure: as §1, §2, §3, §4, §5, §6, §7, §8, §9, §10, §11, §12, §13
The subject of assay [3] is E. faecium VRE NCTC 12204. Briefly: General MIC protocol, Gram positive panel. On the procedure:
as §1, §2, §3, §4, §5, §6, §7, §8, §9, §10, §11, §12, §13

In another assay the test system is EMRSA-15. Put plainly: General MIC protocol, Gram positive panel. On the procedure:
as §1, §2, §3, §4, §5, §6, §7, §8, §9, §10, §11, §12, §13

Another assay concerns E. faecalis VSE NCTC 775. Briefly: General MIC protocol, Gram positive panel. To be noted: Enterococcus faecalis, NCTC775; VSE 775. The method, then: as §1, §2, §3, §4, §5, §6, §7, §8, §9, §10, §11, §12, §13
Assay [4] relates to HeLa (Cervical cancer cell line). Put plainly: MTT cytotoxicity assay. To be noted: Homo sapiens, MTT, 24 h continuous exposure, read-out: IC50 HeLa (Cervical cancer cell line). On the procedure: (§14) Two immortalised human cell lines, HeLa and WI38 were used for cytotoxicity screening of the compounds. HeLa is a human cervical cancer cell line and WI38 is a normal healthy cell line. The cell lines were obtained from the American Type Culture Collection. The cell-lines were maintained in monolayer culture in 75 cm2 flasks (TPP, Switzerland) under a humidified 5% CO2 atmosphere at 37° C. The HeLa cell line was maintained in Dulbecco's Modified Eagles Media (DMEM; Invitrogen) supplemented with foetal bovine serum (10% v/v; Invitrogen), L-glutamine (2 mM; Invitrogen), non-essential amino acids (1×; Invitrogen) and Penicillin-Streptomycin (1% v/v, Invitrogen). For WI38, Eagle's Minimum Essential Medium, and Penicillin-Streptomycin (1% v/v, Invitrogen) and foetal bovine serum (10%, nvitrogen) was used. For passaging, cells were washed with phosphate buffered saline [PBS] (GIBCO 14040, Invitrogen, UK), incubated with trypsine (GIBCO 25300, Invitrogen, UK), and re-seeded into fresh medium. For seeding, cells were counted using a Neubauer haemocytometer (Assistant, Germany) by microscopy (Nikon, USA) on a non-adherent suspension of cells that were washed in PBS, trypsinised, centrifuged at 8° C. at 8000 rpm for 5 min and re-suspended in fresh medium.
(§15) The cells were grown in normal cell culture conditions at 37° C. under a 5% CO2 humidified atmosphere using appropriate medium. The cell count was adjusted to 10^5 cells/ml/ and 20,000 cells were added per well. The cells were incubated for 24 hours and 1 μl of the appropriate inhibitor concentrations were to the wells in triplicates. After 24 h of continuous exposure to each compound, the cytotoxicity was determined using the MIT (3-(4,5-Dimethylthiazol-2-yl)-2,5-diphenyltetrazolium bromide) (Lancaster Synthesis Ltd, UK) colorimetric assay. Absorbance was quantified by spectrophotometry at λ=570 nm (Envision Plate Reader, PerkinElmer, USA). IC50 values were calculated by a dose-response analysis using the Prism Graphpad Prism® software. The cytotoxicity results are shown below in Table 12.
On the technique in general: Tetrazolium dyes change colour on reduction, which living cells bring about.

A further assay has as its system WI38 (Healthy cell line). Briefly: MTT cytotoxicity assay. As to conditions: Homo sapiens, WI-38; MTT; 24 h continuous exposure; highest concentration tested 20 μM; read-out: IC50 WI38 (Healthy cell line). The method, then: as §14, §15
The test system of another assay is K. pneumonia M6. Briefly: General MIC protocol, Gram negative. As to conditions: Klebsiella pneumoniae; KP-M6. The method, then:
as §1, §2, §3, §4, §5, §6, §7, §8, §9, §10, §11, §12, §13

For the next assay, the system named is A. baumannii NCTC 17978. Put plainly: General MIC protocol, Gram negative. To be noted: Acinetobacter baumannii, NCTC17978. On the procedure: as §1, §2, §3, §4, §5, §6, §7, §8, §9, §10, §11, §12, §13
The next assay has as its system A. baumannii AYE. Put plainly: General MIC protocol, Gram negative. As to conditions: Acinetobacter baumannii. The method, then: as §1, §2, §3, §4, §5, §6, §7, §8, §9, §10, §11, §12, §13
The subject of another assay is K. pneumonia NCTC 13368. Put plainly: General MIC protocol, Gram negative. As to conditions: Klebsiella pneumoniae, NCTC13368. On the procedure: as §1, §2, §3, §4, §5, §6, §7, §8, §9, §10, §11, §12, §13
The next assay concerns P. aeruginosa NCTC 13437. Put plainly: General MIC protocol, Gram negative. To be noted: Pseudomonas aeruginosa, NCTC13437. The method, then: as §1, §2, §3, §4, §5, §6, §7, §8, §9, §10, §11, §12, §13

In brackets after ≈: the same amount, converted by molar mass. Where two headings read alike, the source gives them in different places.

Turning to `C[C@H]1COc2c(N3CCN(C)CC3)c(F)cc3c(=O)c(C(=O)O)cn1c23` [Levofloxacin, levofloxacin], the MIC in the assay with Klebsiella KP 342 is 0.5 to 1 µg/mL (≈ 1.38 to 2.77 µM); with Psueudomonas GH12, greater than 16 µg/mL; in the assay with K. pneumonia KP16, 8 to 16 µg/mL (≈ 22.1 to 44.3 µM); in the assay on K. pneumonia NCTC 51851, greater than 16 µg/mL; in the assay on K. pneumonia NCTC 13439 it was 16 µg/mL (≈ 44.3 µM); in the assay on K. pneumonia NCTC 13443 it was greater than 16 µg/mL. Moreover, the minimal inhibitory concentration (MIC) in the assay with K. pneumonia MGH 78578 is 1 µg/mL (≈ 2.77 µM); with P. aeruginosa PA01 (PA01, read-out: MIC), 4 µg/mL (≈ 11.1 µM); with K. pneumonia NCTC 13438 it was greater than 16 µg/mL.
`COc1cc2c(cc1OCCCC(=O)Nc1cc(C(=O)Nc3ccc4oc(C(=O)N5CCCCC5)cc4c3)n(C)c1)N=C[C@@H]1CCCN1C2=O` [PP-B26, (S)-4-(4-((7-methoxy-5-oxo-2,3,5,11a-tetrahydro-1H-benzo-[e]pyrrolo[1,2-a][1,4]diazepin-8-yl)oxy)butanamido)-1-methyl-N-(2-(piperidine-1-carbonyl)benzofuran-5-yl)-1H-pyrrole-2-carboxamide]: the MIC is 0.5 µg/mL (≈ 0.734 µM) with EMRSA-16; less than 0.125 µg/mL in [1]; less than 0.125 µg/mL in assay [2]; less than 0.125 µg/mL in [3]; 0.25 µg/mL (≈ 0.367 µM) against EMRSA-15; 0.25 µg/mL (≈ 0.367 µM) in the assay with E. faecalis VSE NCTC 775. The minimal inhibitory concentration (MIC) was 8 µg/mL (≈ 11.8 µM) with K. pneumonia M6; 2 µg/mL (≈ 2.94 µM) in the assay on A. baumannii NCTC 17978; 2 µg/mL (≈ 2.94 µM) in the assay on A. baumannii AYE; 64 µg/mL (≈ 94 µM) with K. pneumonia NCTC 13368; 128 µg/mL (≈ 188 µM) in the assay on P. aeruginosa PA01 (PA01, PA01); 32 µg/mL (≈ 47 µM) against P. aeruginosa NCTC 13437. Also, the half-maximal inhibitory concentration (IC50) (in assay [4]; in the assay on WI38 (Healthy cell line)) was greater than 20 µM throughout.
